#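 48-hour exposure; five concentrations; linearly interpolated endpoints. The concentration for 50% growth inhibition is given as GI50. TGI is the concentration that stops growth completely.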
# Assays:
# Assay in all cases: NCI-60 cell line screen, 48 h
# A498 renal = test system: A498 renal
# M14 melanoma = test system: M14 melanoma
# MCF7 breast = test system: MCF7 breast
# NCI-H226 lung = test system: NCI-H226 lung
# NCI-H460 lung = test system: NCI-H460 lung
# SF-539 CNS = test system: SF-539 CNS
# SK-MEL-2 melanoma = test system: SK-MEL-2 melanoma
# SK-MEL-5 melanoma = test system: SK-MEL-5 melanoma
# SR leukemia = test system: SR leukemia
# T-47D breast = test system: T-47D breast
Compound,GI50 (A498 renal) [µM],TGI (A498 renal) [µM],GI50 (M14 melanoma) [µM],TGI (M14 melanoma) [µM],GI50 (MCF7 breast) [µM],TGI (MCF7 breast) [µM],GI50 (NCI-H226 lung) [µM],TGI (NCI-H226 lung) [µM],GI50 (NCI-H460 lung) [µM],TGI (NCI-H460 lung) [µM],GI50 (SF-539 CNS) [µM],TGI (SF-539 CNS) [µM],GI50 (SK-MEL-2 melanoma) [µM],TGI (SK-MEL-2 melanoma) [µM],GI50 (SK-MEL-5 melanoma) [µM],TGI (SK-MEL-5 melanoma) [µM],GI50 (SR leukemia) [µM],TGI (SR leukemia) [µM],GI50 (T-47D breast) [µM],TGI (T-47D breast) [µM]
O=C1/C(=C/c2ccc([N+](=O)[O-])s2)Oc2ccc(Br)cc21,2.31,6.32,0.423,1.9,0.309,1.87,1.14,2.84,0.396,1.63,0.212,0.517,0.231,0.509,0.268,0.805,0.152,0.914,0.25,0.804
Nc1ncnc2c1ncn2C1OC(F)(COS(N)(=O)=O)C(O)C1O (stereo not drawn),> 100,> 100,> 100,> 100,> 100,> 100,> 100,> 100,> 100,> 100,> 100,> 100,> 100,> 100,> 100,> 100,> 100,> 100,> 100,> 100
NC(=O)c1c(NC(=O)c2ccc(C(F)(F)F)cc2Cl)sc2c1CCC(=O)C2,1.95,6.37,0.355,1.89,0.279,4.08,1.34,5.85,1.29,9.48,0.28,1.04,1.87,5.37,0.684,2.08,0.305,> 100,0.238,4.73
O=C1c2ccccc2-n2c1nc1ccc([N+](=O)[O-])cc1c2=O,–,35.5,–,> 100,–,24.4,–,> 100,–,> 100,–,> 100,–,–,–,> 100,–,> 100,–,> 100
O=C(Nc1cccc2[nH]c(C(F)(F)F)nc12)c1ccc(Br)cc1F,2,5.57,3.83,14.5,2.5,15,2.97,12.8,3.45,12.4,3.26,11.6,0.32,2.12,1.85,3.94,3.51,16.1,2.26,7.49
O=C1C2C3C=CC(C2C(=O)N1CN1CCOCC1)C1C2C(=O)N(CN4CCOCC4)C(=O)C2C31 (stereo not drawn),–,> 100,–,> 57.2,–,> 100,–,> 84.3,–,> 57.5,–,> 79.6,–,> 61.1,–,> 58,–,> 100,–,> 100
C[C@H]1CCC/C=C/[C@@H]2C[C@H](O)C[C@H]2[C@H](O)C(O)C(O)C(=O)O1 (stereo partly drawn),2.29,7.96,3.61,> 100,2.64,> 20.1,0.189,0.399,2.65,> 100,0.677,> 100,3.81,> 23.9,0.362,–,1.28,3.66,5.96,> 100

# — PubChem BioAssay (NCI)
